According to patent US20200157637A1, “TARGETING OF ANAPLASTIC LYMPHOMA KINASE IN SQUAMOUS CELL CARCINOMA” (BOARD OF REGENTS, THE UNIVERSITY OF TEXAS SYSTEM, priority 2017, published 2020):
Entries after “also recorded” stand apart in the source; their conditions may differ.

How the values were obtained:
oral cancer patients = details: cited from earlier work
HSC3 cells [1] = test: Cell migration (IncuCyte wound-healing) assay, HSC3; format: cell-based, Human; details: 500 nM each
Description: (§1) Cell migration assay. Cellular migration was performed using the IncuCyte ZOOM™ live cell image device (Essen Bioscience). After achieving cell confluence in 96-well format, the IncuCyte scratch system was used to generate simultaneous rectangular ‘wounds’ with a defined area in HSC3 and Ca127 cell layers. […] Images of cells moving within the wound area were taken by the automated Incu-Cyte system over intervals of 2 hr (HSC3) or 3 hr (Ca127). Migration was calculated as percent of cell confluence within the wound, starting at 0% confluence (i.e., no cells in the wound area). When the wound was completely filled with migrating cells, this was calculated at 100% confluence.

HSC3 cells [2] = test: Cell viability assay, HSC3; format: cell-based, Human; details: 500 nM each, 48, 72 and 96 h
Description: (§2) Cell viability assays. Cytotoxicity was assessed using the Cell Titer 96 Aqueous Non-Radioactive Cell Proliferation Assay (Promega, Madison, Wis.) according to manufacturer's protocol. Absorbance values of test groups were normalized against controls (n=4).

Ca127 cells [3] = test: Cell viability assay, Ca127; format: cell-based, Human; details: 500 nM each, 48, 72 and 96 h
Description: as §2

HSC3 mouse xenografts = test: OSCC mouse xenograft model (HSC3-derived tumors); format: in vivo
Description: OSCC mouse xenograft models. All studies were approved by the UTHSCSA institutional Animal Care and Use Committee. Six week-old female athymic nude mice (Harlan, Indianapolis, […].) were used in a laminar air-flow cabinet under pathogen-free conditions. Mice were provided with a 12 h light/dark schedule at controlled temperature and humidity with food and water ad libitum. Mice were acclimated for one week prior to study initiation. Mice were injected subcutaneously in the right flank with 3×10^6 HSC3 cells in 0.1 ml of sterile PBS. […] Treatments were repeated every day for a total of 14 days. Mice were monitored daily for tumor growth (using digital calipers), cachexia, and weight loss. Tumor volumes were calculated by the elliptical formula: ½ (Length×Width^2) (Jensen et al., 2008). At experimental conclusion, tumors were fixed and processed for histological analysis. Hematoxylin and eosin (H&E) staining and IHC studies were performed by the UTHSCSA Cancer Therapy and Research Center (CTRC) core pathology laboratory.

HSC3 cells [4] = test: Flow cytometry cell cycle analysis (PI staining), HSC3; format: cell-based, Human; details: 500 nM each, 30 hr
Text: (§3) Flow cytometry. […] Cells were harvested, fixed in 70% EtoH, treated with RNase A, and stained with propidium iodide (PI).

Ca127 cells [5] = test: Cell migration (IncuCyte wound-healing) assay, Ca127; format: cell-based, Human; details: 500 nM each
Description: as §1

Cal27 cells = test: Flow cytometry cell cycle analysis (PI staining), Cal27; format: cell-based, Human; details: 500 nM each, 30 hr
Text: as §3

[6] = system: EGFR signaling components in HSC3 cells; test: Western blot analysis of EGFR signaling components, HSC3; format: cell-based, Human; details: 500 nM each, 6 h
Text: (§4) Immunoblotting. […] SDS-PAGE separated proteins were transferred to PVDF membrane and the membrane blocked in 5% milk.

[7] = system: EGFR signaling components in Ca127 cells; test: Western blot analysis of EGFR signaling components, Ca127; format: cell-based, Human; details: 500 nM each, 6 h
Text: as §4

Row | SMILES | cell growth (in words) (HSC3 cells [2]) | cell growth (in words) (Ca127 cells [3]) | G1 (HSC3 cells [4]) | G2 (HSC3 cells [4]) | S (HSC3 cells [4]) | SubG1 (HSC3 cells [4]) | G1 (Cal27 cells) | G2 (Cal27 cells) | S (Cal27 cells) | SubG1 (Cal27 cells) | further results
1 | C#Cc1cccc(Nc2ncnc3cc(OCCOC)c(OCCOC)cc23)c1 [Erlotinib] |  |  |  |  |  |  |  |  |  |  | response rate (oral cancer patients; oral cancer patients with stage I disease): 10-15%; response (in words) (oral cancer patients; patients with stages II, III, and IV disease): failed to respond entirely
2 | COc1cc2ncnc(Nc3ccc(F)c(Cl)c3)c2cc1OCCCN1CCOCC1 [Gefitinib] | significant anti-proliferative effects | significant anti-proliferative effects | 95.60 % of cell distribution | 1.87 % of cell distribution | 0.0 % of cell distribution | 2.03 % of cell distribution | 90.79 % of cell distribution | 4.44 % of cell distribution | 2.59 % of cell distribution | 2.53 % of cell distribution | cell migration (in words) (HSC3 cells [1]): significant reduction from 2 to 8 h; tumor volume compared to control (HSC3 mouse xenografts; day 6, Gefitinib 100 mg/kg daily, oral gavage): 57 % of control; cell migration (in words) (Ca127 cells [5]): significantly reduced at 9 h and remained significantly low for 48 h
3 | COc1cc(N2CCC(N3CCN(C)CC3)CC2)ccc1Nc1ncc(Cl)c(Nc2ccccc2S(=O)(=O)C(C)C)n1 [TAE684] | significant anti-proliferative effects | significant anti-proliferative effects | 95.23 % of cell distribution | 3.73 % of cell distribution | 0.84 % of cell distribution | 0.34 % of cell distribution | 88.11 % of cell distribution | 8.40 % of cell distribution | 2.25 % of cell distribution | 1.68 % of cell distribution | tumor growth (in words) (HSC3 mouse xenografts; daily oral gavage for 14 days, TAE684 10 mg/kg, Gefitinib 100 mg/kg): unaffected; also recorded: No change in tumor growth; mean tumor volume (HSC3 mouse xenografts; day 14, daily oral gavage, TAE684 10 mg/kg, Gefitinib 100 mg/kg, vehicle control 431 mm^3): 381 mm^3; activation of STAT3 (p-STAT3 to total STAT3) (in words) [6]: induced; phospho-AKT / AKT activation (in words) [6]: significantly reduced; activation of STAT3 (p-STAT3 to total STAT3) (in words) [7]: slightly induced; phospho-AKT / AKT activation (in words) [7]: significantly decreased
